Consider 40 compounds from ChEMBL document CHEMBL5625174, “Are inhibitors of histone deacetylase 8 (HDAC8) effective in hematological cancers especially acute myeloid leukemia (AML) and acute lymphoblastic leukemia (ALL)?” (Eur J Med Chem, 2023).

Holding throughout (type): functional, cell-based
One experiment has as its system MOLT-4. The experiment is described as follows: Cytotoxicity against human MOLT-4 cells assessed as reduction in cell viability.
The subject of a further experiment is Jurkat E6.1. The experiment can be described thus: Cytotoxicity against human Jurkat E6.1 cells assessed as reduction in cell viability.
For another experiment, the system named is U-937. The experiment can be described thus: Cytotoxicity against human U-937 cells assessed as reduction in cell viability.

pIC50: −log10 of the molar value.

Consider `CCCCNC(=O)[C@H](CCC(=O)O)NC(=O)Cc1ccc(-c2ccccc2)cc1`, for which the pIC50 with MOLT-4 is above 4.46; in the experiment with Jurkat E6.1, above 4.46; in the experiment on U-937, below 4.46.
In the case of `CCCCNC(=O)[C@H](CCC(=O)O)NC(=O)Cc1ccc(Br)cc1`, the pIC50 was at least 4.46 with MOLT-4, at least 4.46 in the experiment with Jurkat E6.1 and below 4.46 in the experiment with U-937.
Regarding `CCCCCNC(=O)[C@H](CCC(=O)O)NC(=O)Cc1ccc(Br)cc1`, the pIC50 was at least 4.46 in the experiment on MOLT-4, at least 4.46 in the experiment on Jurkat E6.1 and below 4.46 with U-937.
As to `COc1ccc(CC(=O)N[C@@H](CCC(=O)O)C(=O)NCC(C)C)cc1`, the pIC50 in the experiment with MOLT-4, in the experiment on Jurkat E6.1 and in the experiment on U-937 was below 4.46 throughout.
Regarding `CC(C)(C)NC(=O)[C@H](CCC(=O)O)NC(=O)Cc1ccc([N+](=O)[O-])cc1`, the figures for the pIC50 with MOLT-4, in the experiment with Jurkat E6.1 and in the experiment on U-937 were above 4.46, below 4.46 and below 4.46, respectively.
Take `O=C(O)CC[C@H](NC(=O)Cc1ccccc1F)C(=O)Nc1ccccc1`: the pIC50 in the experiment on MOLT-4 was above 4.46; in the experiment with Jurkat E6.1 it was above 4.46; in the experiment with U-937, below 4.46.
In the case of `CC(C)CNC(=O)[C@H](CCC(=O)O)NC(=O)Cc1ccccc1`, the negative logarithm of the IC50 (pIC50) in the experiment on MOLT-4, in the experiment with Jurkat E6.1 and in the experiment with U-937 was below 4.46 throughout.
As to `CCCCCCNC(=O)[C@H](CCC(=O)O)NC(=O)Cc1ccccc1F`, the results for the pIC50 in the experiment with MOLT-4, in the experiment on Jurkat E6.1 and in the experiment with U-937 were above 4.46, above 4.46 and below 4.46, respectively.
With `CC(C)NC(=O)[C@H](CCC(=O)O)NC(=O)Cc1ccccc1`, the pIC50 is at least 4.46 in the experiment with MOLT-4, at least 4.46 in the experiment on Jurkat E6.1 and below 4.46 with U-937.
In the case of `O=C(O)CC[C@H](NC(=O)Cc1ccccc1Cl)C(=O)NCc1ccccc1`, the pIC50 with MOLT-4 is at least 4.46; in the experiment with Jurkat E6.1, at least 4.46; in the experiment on U-937, below 4.46.
With `CCCCCNC(=O)[C@H](CCC(=O)O)NC(=O)Cc1ccccc1F`, the pIC50 was above 4.46 with MOLT-4, above 4.46 with Jurkat E6.1 and below 4.46 with U-937.
For the compound `CCCCNC(=O)[C@H](CCC(=O)O)NC(=O)Cc1ccc(Cl)cc1Cl`, the results for the negative-log IC50 (pIC50) in the experiment with MOLT-4, in the experiment on Jurkat E6.1 and in the experiment with U-937 were above 4.46, above 4.46 and below 4.46, respectively.
Regarding `CCCCCCNC(=O)[C@H](CCC(=O)O)NC(=O)Cc1ccc2ccccc2c1`, the values for the pIC50 with MOLT-4, with Jurkat E6.1 and in the experiment on U-937 were at least 4.46, at least 4.46 and below 4.46, respectively.
Take `CCCCCNC(=O)[C@H](CCC(=O)O)NC(=O)Cc1ccc(Cl)cc1Cl`: the negative logarithm of the IC50 (pIC50) in the experiment with MOLT-4, in the experiment on Jurkat E6.1 and with U-937 was above 4.46 throughout.
Consider `CCCCNC(=O)[C@H](CCC(=O)O)NC(=O)Cc1ccccc1F`, for which the pIC50 was below 4.46 in the experiment on MOLT-4, above 4.46 with Jurkat E6.1 and below 4.46 with U-937.
For the compound `CC(C)CNC(=O)[C@H](CCC(=O)O)NC(=O)Cc1ccccc1F`, the figures for the pIC50 in the experiment on MOLT-4, with Jurkat E6.1 and in the experiment with U-937 were at least 4.46, at least 4.46 and below 4.46, respectively.
As for `CCCCCNC(=O)[C@H](CCC(=O)O)NC(=O)Cc1ccc([N+](=O)[O-])cc1`, the results for the negative-log IC50 (pIC50) in the experiment with MOLT-4, in the experiment on Jurkat E6.1 and with U-937 were above 4.46, above 4.46 and below 4.46, respectively.
As for `CC(C)(C)NC(=O)[C@H](CCC(=O)O)NC(=O)Cc1ccccc1`, the pIC50 in the experiment with MOLT-4, in the experiment on Jurkat E6.1 and with U-937 was at least 4.46 in each case.
With `CC(C)NC(=O)[C@H](CCC(=O)O)NC(=O)Cc1ccc(-c2ccccc2)cc1`, the negative logarithm of the IC50 (pIC50) is below 4.46 in the experiment on MOLT-4, above 4.46 in the experiment with Jurkat E6.1 and below 4.46 with U-937.
Regarding `CC(C)CNC(=O)[C@H](CCC(=O)O)NC(=O)Cc1ccc(-c2ccccc2)cc1`, the negative-log IC50 (pIC50) in the experiment on MOLT-4, in the experiment with Jurkat E6.1 and with U-937 was below 4.46 in each case.
Take `CCCCNC(=O)[C@H](CCC(=O)O)NC(=O)Cc1ccccc1Cl`: the pIC50 is at least 4.46 in the experiment on MOLT-4, at least 4.46 in the experiment on Jurkat E6.1 and below 4.46 with U-937.
For the compound `Cc1ccccc1CC(=O)N[C@@H](CCC(=O)O)C(=O)Nc1ccccc1`, the pIC50 in the experiment on MOLT-4, in the experiment with Jurkat E6.1 and in the experiment with U-937 was below 4.46 in each case.
As to `CCCCNC(=O)[C@H](CCC(=O)O)NC(=O)Cc1ccccc1`, the negative-log IC50 (pIC50) with MOLT-4 is at least 4.46; with Jurkat E6.1 it was below 4.46; with U-937 it was below 4.46.
Turning to `O=C(O)CC[C@H](NC(=O)Cc1ccccc1)C(=O)Nc1ccccc1`, the pIC50 with MOLT-4, in the experiment on Jurkat E6.1 and in the experiment on U-937 was at least 4.46 each time.
Consider `CCCNC(=O)[C@H](CCC(=O)O)NC(=O)Cc1ccc(-c2ccccc2)cc1`, for which the pIC50 is above 4.46 with MOLT-4, above 4.46 with Jurkat E6.1 and below 4.46 with U-937.
In the case of `O=C(O)CC[C@H](NC(=O)Cc1ccccc1)C(=O)NC1CCCCC1`, the pIC50 is below 4.46 with MOLT-4, at least 4.46 with Jurkat E6.1 and at least 4.46 with U-937.
Regarding `O=C(O)CC[C@H](NC(=O)Cc1ccc([N+](=O)[O-])cc1)C(=O)NCc1ccccc1`, the pIC50 with MOLT-4 is above 4.46; with Jurkat E6.1, above 4.46; in the experiment on U-937, below 4.46.
Regarding `CCCCNC(=O)[C@H](CCC(=O)O)NC(=O)Cc1ccc([N+](=O)[O-])cc1`, the pIC50 in the experiment with MOLT-4 was above 4.46; in the experiment on Jurkat E6.1, above 4.46; in the experiment with U-937 it was below 4.46.
Turning to `CCCCCCNC(=O)[C@H](CCC(=O)O)NC(=O)Cc1ccccc1Br`, the pIC50 in the experiment on MOLT-4, in the experiment with Jurkat E6.1 and with U-937 was above 4.46 in each case.
With `CCCNC(=O)[C@H](CCC(=O)O)NC(=O)Cc1ccccc1F`, the pIC50 in the experiment with MOLT-4, with Jurkat E6.1 and in the experiment with U-937 was below 4.46 throughout.
As for `CCCCCNC(=O)[C@H](CCC(=O)O)NC(=O)Cc1ccccc1`, the negative logarithm of the IC50 (pIC50) is at least 4.46 in the experiment with MOLT-4, at least 4.46 in the experiment with Jurkat E6.1 and below 4.46 in the experiment on U-937.
Regarding `CC(C)NC(=O)[C@H](CCC(=O)O)NC(=O)Cc1ccc(Cl)cc1`, the pIC50 in the experiment with MOLT-4, with Jurkat E6.1 and in the experiment with U-937 was at least 4.46 throughout.
As to `O=C(O)CC[C@H](NC(=O)Cc1ccc(Br)cc1)C(=O)NC1CCCCC1`, the pIC50 in the experiment on MOLT-4 is at least 4.46; with Jurkat E6.1, at least 4.46; in the experiment with U-937, below 4.46.
`COc1ccc(CC(=O)N[C@@H](CCC(=O)O)C(=O)NCc2ccccc2)cc1`: the pIC50 in the experiment with MOLT-4 was at least 4.46; in the experiment on Jurkat E6.1, at least 4.46; with U-937, below 4.46.
`CCCNC(=O)[C@H](CCC(=O)O)NC(=O)Cc1ccccc1`: the pIC50 is at least 4.46 in the experiment with MOLT-4, at least 4.46 in the experiment with Jurkat E6.1 and below 4.46 in the experiment on U-937.
For `O=C(O)CC[C@H](NC(=O)Cc1ccccc1)C(=O)NCc1ccccc1`, the pIC50 in the experiment on MOLT-4, with Jurkat E6.1 and in the experiment on U-937 was below 4.46 each time.
Regarding `CCCCCCNC(=O)[C@H](CCC(=O)O)NC(=O)Cc1ccccc1Cl`, the pIC50 in the experiment with MOLT-4, with Jurkat E6.1 and in the experiment with U-937 was below 4.46 in each case.
Turning to `CC(C)CNC(=O)[C@H](CCC(=O)O)NC(=O)Cc1ccccc1Br`, the negative-log IC50 (pIC50) in the experiment on MOLT-4 is above 4.46; with Jurkat E6.1 it was above 4.46; in the experiment with U-937, below 4.46.
For `CC(C)CNC(=O)[C@H](CCC(=O)O)NC(=O)Cc1ccccc1Cl`, the pIC50 in the experiment with MOLT-4 was at least 4.46; with Jurkat E6.1, at least 4.46; in the experiment on U-937, below 4.46.
`CCCCCNC(=O)[C@H](CCC(=O)O)NC(=O)Cc1ccccc1Cl`: the values for the pIC50 with MOLT-4, in the experiment on Jurkat E6.1 and in the experiment with U-937 were below 4.46, at least 4.46 and below 4.46, respectively.

What is called pIC50 is −log10 of the IC50, conventionally taken in molar units.
